The values below come from the supplement of paper PMC3770661.

Where a name gives a salt, the structure may show the parent alone. ± gives the uncertainty stated by the source.

This assay concerns HepG2 (L1.3 5'UTR promoter firefly luciferase reporter). Put plainly: L1 promoter activity (FLuc/RLuc) relative to DMSO vehicle control (% of control); higher = stronger L1 promoter activation. How it is done:
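HepG2 cells in 96-well plates were cotransfected with pGL4.11-L1.3 5'UTR (firefly luciferase driven by the human L1.3 5'UTR promoter) and pGL4.74 (HSV-TK Renilla luciferase internal control), then treated with compound for 6 or 24 h. FLuc/RLuc ratio was normalised to the DMSO vehicle control (% of control); concentrations where RLuc fell below 50% of control were excluded (N.D.). Mean of at least two independent experiments in duplicate or quadruplicate.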

[1] abbreviates: concentration (uM unless unit written): 50, treatment time: 6 h.
The mark [2] stands for this setting: concentration (uM unless unit written): 50, treatment time: 24 h.
Setting [3] is: concentration (uM unless unit written): 100, treatment time: 6 h.
Setting [4] is: concentration (uM unless unit written): 0.01, treatment time: 6 h.
The mark [5] stands for this setting: concentration (uM unless unit written): 0.01, treatment time: 24 h.
The mark [6] stands for this setting: concentration (uM unless unit written): 500, treatment time: 6 h.
[7] abbreviates: concentration (uM unless unit written): 500, treatment time: 24 h.
Setting [8] is: concentration (uM unless unit written): 1000, treatment time: 6 h.
[9] abbreviates: concentration (uM unless unit written): 10, treatment time: 6 h.
The mark [10] stands for this setting: concentration (uM unless unit written): 10, treatment time: 24 h.
Where [11] appears, read: concentration (uM unless unit written): 100, treatment time: 24 h.
Where [12] appears, read: concentration (uM unless unit written): 25, treatment time: 6 h.
[13] abbreviates: concentration (uM unless unit written): 25, treatment time: 24 h.
[14] abbreviates: concentration (uM unless unit written): 1, treatment time: 6 h.
The mark [15] stands for this setting: concentration (uM unless unit written): 1, treatment time: 24 h.
Setting [16] is: concentration (uM unless unit written): 125, treatment time: 6 h.
Setting [17] is: concentration (uM unless unit written): 125, treatment time: 24 h.
The mark [18] stands for this setting: concentration (uM unless unit written): 250, treatment time: 6 h.
The mark [19] stands for this setting: concentration (uM unless unit written): 250, treatment time: 24 h.
[20] abbreviates: concentration (uM unless unit written): 3, treatment time: 6 h.
The mark [21] stands for this setting: concentration (uM unless unit written): 3, treatment time: 24 h.
The mark [22] stands for this setting: concentration (uM unless unit written): 6, treatment time: 6 h.
Setting [23] is: concentration (uM unless unit written): 6, treatment time: 24 h.

`CN1CCC(=C2c3ccccc3C=Cc3ccccc32)CC1` [Cyproheptadine hydrochloride sesquihydrate] registered an L1 promoter activity under setting [1] of 90.1 ± 17; an L1 promoter activity under setting [2] of 70.2 ± 14; an L1 promoter activity under setting [3] of 74.7 ± 30; an L1 promoter activity (concentration (uM unless unit written): 200, treatment time: 6 h) of 47.2 ± 12.
Take `COc1cc2c(c(OC)c1OC)-c1ccc(OC)c(=O)cc1[C@@H](NC(C)=O)CC2` [Colchicine]: the L1 promoter activity stood at 100 ± 17 under setting [4]; 100 ± 18 under setting [5]; 99.8 ± 4.3 (concentration (uM unless unit written): 0.05, treatment time: 6 h); 108 ± 32 (concentration (uM unless unit written): 0.1, treatment time: 6 h).
Regarding `CC(C)=CC(=O)C=C(C)C` [Phorone], the L1 promoter activity runs as follows: under setting [6], 131 ± 16; under setting [7], 118 ± 21; under setting [8], 131 ± 6.7; (concentration (uM unless unit written): 1000, treatment time: 24 h) 118 ± 23.
In the case of `CC(C)OC(=O)C(C)(C)Oc1ccc(C(=O)c2ccc(Cl)cc2)cc1` [Fenofibrate], the L1 promoter activity under setting [9] was 117 ± 9.8; the L1 promoter activity under setting [10] was found to be 108 ± 5.3; the L1 promoter activity under setting [1] is 126 ± 11; the L1 promoter activity under setting [2] amounted to 127 ± 10; the L1 promoter activity under setting [3] worked out at 141 ± 12; the L1 promoter activity under setting [11] worked out at 163 ± 24.
Turning to `COC(=O)[C@H](c1ccccc1Cl)N1CCc2sccc2C1` [Clopidogrel], the L1 promoter activity reads like this: under setting [9], 96.7 ± 8.6; under setting [10], 113 ± 5.2; under setting [12], 98.5 ± 12; under setting [13], 113 ± 14; under setting [1], 92.9 ± 6; under setting [2], 110 ± 9.2. The L1 promoter activity is, setting by setting: under setting [3], 84.6 ± 4.5; under setting [11], 107 ± 12.
Consider `COc1cccc2c1C(=O)c1c(O)c3c(c(O)c1C2=O)C[C@@](O)(C(=O)CO)C[C@@H]3O[C@H]1C[C@H](N)[C@H](O)[C@H](C)O1` [Doxorubicin], for which the L1 promoter activity reads like this: (concentration (uM unless unit written): 0.1, treatment time: 24 h) 88.8 ± 15; (concentration (uM unless unit written): 0.5, treatment time: 6 h) 101 ± 33; (concentration (uM unless unit written): 0.5, treatment time: 24 h) 40.2 ± 13; under setting [14], 98.1 ± 26; under setting [15], 30.3 ± 5.5.
`O=C(O)CC[N+](=O)[O-]` [3-Nitropropionic acid] registered an L1 promoter activity under setting [16] of 114 ± 5; an L1 promoter activity under setting [17] of 95.1 ± 5.4; an L1 promoter activity under setting [18] of 112 ± 14; an L1 promoter activity under setting [19] of 94.2 ± 18; an L1 promoter activity under setting [6] of 119 ± 14; an L1 promoter activity under setting [7] of 80.7 ± 11.
Compound `CO[C@@]12[C@H](COC(N)=O)C3=C(C(=O)C(C)=C(N)C3=O)N1C[C@@H]1N[C@@H]12` [Mitomycin C] gave an L1 promoter activity (concentration (uM unless unit written): 2.5, treatment time: 6 h) of 119 ± 25; an L1 promoter activity (concentration (uM unless unit written): 2.5, treatment time: 24 h) of 131 ± 10; an L1 promoter activity under setting [9] of 96.4 ± 11; an L1 promoter activity under setting [10] of 114 ± 25.
As to `CCC(C)(C)C(=O)O[C@H]1C[C@@H](C)C=C2C=C[C@H](C)[C@H](CC[C@@H]3C[C@@H](O)CC(=O)O3)[C@H]21` [Simvastatin], the L1 promoter activity under setting [14] is 94.1 ± 18; the L1 promoter activity under setting [15] came to 100 ± 12; the L1 promoter activity under setting [20] was determined as 93.1 ± 7.7; the L1 promoter activity under setting [21] was determined as 117 ± 14; the L1 promoter activity under setting [22] was 108 ± 18; the L1 promoter activity under setting [23] stood at 107 ± 15.
Regarding `CC(=O)[C@H]1CC[C@H]2[C@@H]3CCC4=CC(=O)CC[C@]4(C)[C@H]3CC[C@]12C` [Progesterone], the L1 promoter activity under setting [12] is 101 ± 7.1; the L1 promoter activity under setting [13] was 81.7 ± 12; the L1 promoter activity under setting [1] was 90.4 ± 15; the L1 promoter activity under setting [2] turned out to be 67.8 ± 7.1; the L1 promoter activity under setting [3] was 73.7 ± 6.7.
On to `C[C@H](CCC(=O)O)C[C@H](C)C[C@H](C)C(=O)/C=C(\O)[C@H](C)C[C@H](C)C/C=C/[C@@H](C)[C@@H](O)[C@@H](C)[C@@H](O)C[C@@H]1CC[C@@](C)([C@H]2CC[C@@](C)([C@@H](C)O)O2)O1` [Ionomycin], for which the L1 promoter activity is 77.1 ± 5 (concentration (uM unless unit written): 5, treatment time: 6 h); 79.5 ± 15 (concentration (uM unless unit written): 5, treatment time: 24 h); 60 ± 14 under setting [9]; 58.1 ± 11 under setting [10]; 60.5 ± 11 (concentration (uM unless unit written): 20, treatment time: 6 h); 36.9 ± 6.4 (concentration (uM unless unit written): 20, treatment time: 24 h).
The compound `CC[C@H](C)C(=O)O[C@H]1CCC=C2C=C[C@H](C)[C@H](CC[C@@H]3C[C@@H](O)CC(=O)O3)[C@H]21` [Mevastatin] came in with an L1 promoter activity under setting [14] of 114 ± 22; an L1 promoter activity under setting [15] of 118 ± 31; an L1 promoter activity under setting [20] of 101 ± 24; an L1 promoter activity under setting [21] of 105 ± 12; an L1 promoter activity under setting [22] of 123 ± 43; an L1 promoter activity under setting [23] of 103 ± 18.
As for `O=C(O)c1ccccc1Nc1cccc(C(F)(F)F)c1` [Flufenamic acid], the L1 promoter activity is 130 ± 7.7 (concentration (uM unless unit written): 62.5, treatment time: 6 h); 158 ± 19 (concentration (uM unless unit written): 62.5, treatment time: 24 h); 119 ± 14 under setting [16]; 120 ± 20 under setting [17]; 129 ± 21 under setting [18].
Consider `CC1=C2C(=CO[C@H](C)[C@H]2C)C(O)=C(C(=O)O)C1=O` [Citrinin], for which the L1 promoter activity by setting is: (concentration (uM unless unit written): 45, treatment time: 6 h) 101 ± 12; (concentration (uM unless unit written): 45, treatment time: 24 h) 104 ± 14; (concentration (uM unless unit written): 90, treatment time: 6 h) 102 ± 10; (concentration (uM unless unit written): 90, treatment time: 24 h) 134 ± 25.
Turning to `COc1ccc2c(c1OC)C(=O)OC2C1c2c(cc3c(c2OC)OCO3)CCN1C` [(S,R)-Noscapine], the L1 promoter activity turned out to be 85.3 ± 11 under setting [16]; 40.8 ± 2.2 under setting [17]; 80.1 ± 20 under setting [18]; 33.3 ± 5.6 under setting [19]; 68.2 ± 9.4 under setting [6]; 30.4 ± 4.2 under setting [7].
Turning to `Cc1c2oc3c(C)ccc(C(=O)N[C@@H]4C(=O)N[C@H](C(C)C)C(=O)N5CCC[C@H]5C(=O)N(C)CC(=O)N(C)[C@@H](C(C)C)C(=O)O[C@@H]4C)c3nc-2c(C(=O)N[C@@H]2C(=O)N[C@H](C(C)C)C(=O)N3CCC[C@H]3C(=O)N(C)CC(=O)N(C)[C@@H](C(C)C)C(=O)O[C@@H]2C)c(N)c1=O` [Actinomycin D], the L1 promoter activity runs as follows: (concentration (uM unless unit written): 0.0025, treatment time: 6 h) 132 ± 34; (concentration (uM unless unit written): 0.005, treatment time: 6 h) 112 ± 12; under setting [4], 110 ± 36; under setting [5], 144 ± 19.
As to `CCC1(c2ccc(N)cc2)CCC(=O)NC1=O` (stereo not given) [Aminoglutethimide], the L1 promoter activity under setting [18] turned out to be 140 ± 58; the L1 promoter activity under setting [19] was found to be 126 ± 11; the L1 promoter activity under setting [6] turned out to be 136 ± 35; the L1 promoter activity under setting [7] is 102 ± 16; the L1 promoter activity under setting [8] stood at 96 ± 7.4.
In the case of `COC(=O)C1=C(C)NC(C)=C(C(=O)OC)C1c1ccccc1[N+](=O)[O-]` [Nifedipine], the L1 promoter activity stood at 96.1 ± 10 under setting [9]; 104 ± 8.8 under setting [10]; 98.4 ± 2.3 under setting [12]; 126 ± 5.6 under setting [13]; 97.2 ± 12 under setting [1]; 104 ± 7 under setting [2]. Also, the L1 promoter activity runs as follows: under setting [3], 88.6 ± 24; under setting [11], 91.2 ± 2.6.
For the compound `COc1ccc2c(c1)c(CC(=O)O)c(C)n2C(=O)c1ccc(Cl)cc1` [Indometacin], the L1 promoter activity was found to be 99.1 ± 10 under setting [18]; 83 ± 11 under setting [19]; 92.6 ± 13 under setting [6]; 59.3 ± 6.8 under setting [7]; 67.2 ± 10 under setting [8].
Turning to `O=P1(N(CCCl)CCCl)NCCCO1` (stereo not given) [Cyclophosphamide], the L1 promoter activity was determined as 96.3 ± 14 (concentration (uM unless unit written): 10000, treatment time: 6 h); 95.3 ± 11 (concentration (uM unless unit written): 10000, treatment time: 24 h); 93.6 ± 22 (concentration (uM unless unit written): 20000, treatment time: 6 h); 77.9 ± 4.5 (concentration (uM unless unit written): 20000, treatment time: 24 h); 98.3 ± 8.4 (concentration (uM unless unit written): 40000, treatment time: 6 h).
`Cc1cccc(Nc2ccccc2C(=O)O)c1C` [Mefenamic acid]: the L1 promoter activity reads like this: under setting [1], 128 ± 8.3; under setting [2], 91 ± 5.5; under setting [6], 113 ± 19; under setting [8], 93.8 ± 13.
